# Data as given in patent publication US20100137344A1, “INDUCTION OF ANALGESIA IN NEUROPATHIC PAIN” (University Court of the University of Edinburgh, priority 2006, published 2010).
# Tested on: rats with chronic constriction injury (CCI) to sciatic nerve
# Test: Topical application to paws of CCI rats, behavioural reflex testing (thermal PWL, mechanical PWT)
# Format: in vivo, rat
# Conditions: for % reversal of ipsilateral sensitisation, PWL / % reversal of ipsilateral sensitisation, PWT: 10-25 minutes after icilin
# Procedure: Pain models were generated under halothane anaesthesia (Zeneca, Cheshire, UK). For the chronic constriction injury (CCI) model of neuropathic pain, four ligatures were tied loosely to constrict the sciatic nerve at mid-thigh level (as described previously^[39]). An inflammatory pain model was generated by injecting 100 μl of Complete Freund's Adjuvant (CFA, Sigma-Aldrich Ltd) into the ventral surface of the right hindpaw^[39]. A model of peripheral demyelination-induced pain was produced by focal application of lysolecithin to the sciatic nerve^[40]. Peak behavioural sensitisation was observed post-surgically between days 10-16 for CCI, 1-3 for CFA, and 7-14 for lysolecithin, when pharmacological and electrophysiological experiments and tissue removal were conducted.
# Thermal sensitivity was assessed by measuring paw withdrawal latency (PWL, s) in response to a noxious thermal stimulus (Hargreaves' thermal stimulator, Linton Instrumentation, Diss, UK) directed to the hindpaw mid-plantar glabrous surface. Mechanical sensitivity was recorded as the paw withdrawal threshold (PWT, mN/mm^2) to calibrated von Frey filaments (Stoelting, Ill., US), as previously described^[39]. Sensitivity to noxious cold was assessed by placing animals in a waterbath with an aluminium floor containing 1 cm deep 4° C. water and counting the time the paw was held suspended over a 20 s period.
# Icilin was applied at concentrations of 2.5-500 μM (in water with 0.2% DMF), by placing CCI or naïve rats unrestrained for 5 min in a 1 cm deep waterbath (sufficient to cover paws), which was thermostatically controlled to a temperature of 30° C., or by very lightly anaesthetising rats and immersing hindpaws in small tubes containing 5 ml icilin (500 μM-5 mM, with a vehicle of 45% dimethylformamide in 0.2% aqueous Tween 80) for 5 min, followed by sensory testing for 60-80 mins. The effects of (−)-menthol and its stereoisomers isomenthol (1S,2R,5R-menthol,) and (+)-menthol (1S,2R,5S(+)-menthol) (4-16 mM in 80% ethanol) were also assessed. Relevant vehicles were always assessed in similar experiments. As a contrast, the effect of cinnamaldehyde (1.5 mM in water) and the effect of cinnamaldehyde with additional icilin (80 μM in water with 0.2% DMF) were assessed in naïve animals. The effects of icilin (80 μM) were further assessed in CCI animals that had undergone antisense and mis-sense treatment for knockdown of TRPM8 or immediately following intrathecal injection of either LY 341495 or UBP 1112. […] The effects of brief paw immersion at different temperatures (10-22° C. for 5 min) on CCI rats were assessed by mechanical testing. The effects of intrathecal LY 341495 or UBP 1112 on the reversal of ipsilateral sensitisation in CCI following a 16° C. cool challenge for 5 min were measured. Reflex testing commenced 5 minutes following challenge, unless animals had been anaesthetised, in which case 15 minutes was allowed for recovery. Six replicate animals were tested in all pharmacological experiments.
# Antisense and mis-sense oligonucleotides were 22-mers with phosphorothioate bonds at the last two positions at 5′ and 3′ ends (MWG Biotech, Ebersberg, Germany). Antisense extended from base −10 to base +12 relative to the start of the open reading frame for the rat TRPM8 gene: 5′ C*T*CGAAGGACATCTTGCCGT*G*G 3′, where * represents phosphorothioate linkages. Mis-sense was designed with 4 inversions of C/G or A/T as appropriate at residues 3, 11, 14 and 22, preserving overall G/C content. BLAST searches of both oligonucleotides indicated no significant complementarity to any known gene sequence. 14-day or 7-day osmotic minipumps (for CCI experiments or naïve electrophysiology experiments respectively—Alzet Minipump, models 2002, 2001; Charles River, UK) containing oligonucleotides (1 μg/μl in sterile saline) were connected to canulae inserted under the dura of the spinal cord to level L5/6 and produced a predicted infusion rate of 0.5 μl/h. […]
# [1] = icilin 80 μM topical, antisense-treated CCI animals
# [2] = icilin 80 μM topical, mis-sense-treated CCI animals
# [3] = icilin 1000 μM applied to paw, CCI Con, 15 mins
# [4] = icilin 1000 μM applied to paw, CCI Con, 50 mins
# [5] = icilin 1000 μM applied to paw, CCI Ipsi, 15 mins
# [6] = icilin 1000 μM applied to paw, CCI Ipsi, 50 mins
# [7] = icilin 2500 μM applied to paw, CCI Con, 15 mins
# [8] = icilin 2500 μM applied to paw, CCI Con, 50 mins
# [9] = icilin 2500 μM applied to paw, CCI Ipsi, 15 mins
# [10] = icilin 2500 μM applied to paw, CCI Ipsi, 50 mins
# [11] = icilin 5000 μM applied to paw, CCI Con, 15 mins
# [12] = icilin 5000 μM applied to paw, CCI Con, 50 mins
# [13] = icilin 5000 μM applied to paw, CCI Ipsi, 15 mins
# [14] = icilin 5000 μM applied to paw, CCI Ipsi, 50 mins
# [15] = icilin topical, antisense osmotic pumps depleted, 18 days following surgery
smiles,measurement,setting,value
"O=C1NC(c2cccc([N+](=O)[O-])c2)=CCN1c1ccccc1O [icilin, 1-(2′-hydroxyphenyl)-4-(3″-nitrophenyl)-1,2,3,6-tetrahydropyrimidin-2-one]",reversal of CCI-induced behavioural reflex sensitisation to thermal and mechanical stimuli,"icilin 80 μM topical, 5 min, bath at 30° C.",striking reversal
same,"% reversal of ipsilateral sensitisation, PWL",[1],7.7±7.4%
same,"% reversal of ipsilateral sensitisation, PWT",[1],9.4±8.2%
same,"% reversal of ipsilateral sensitisation, PWL",[2],82.8±6.9%
same,"% reversal of ipsilateral sensitisation, PWT",[2],58.7±8.2%
same,analgesia on daily repeated application (Hargreaves' test),icilin 200 μM topical over four successive days,consistently causes analgesia
same,Mechanical PWT,[3],4530.1 ± 300.5 mN/mm^2
same,Thermal PWL,[3],16.1 ± 0.5 s
same,Mechanical PWT,[4],4530.1 ± 300.5 mN/mm^2
same,Thermal PWL,[4],15.2 ± 0.4 s
same,Mechanical PWT,[5],702.8 ± 185.3 mN/mm^2
same,Thermal PWL,[5],16.4 ± 0.8 s
same,Mechanical PWT,[6],702.8 ± 185.3 mN/mm^2
same,Thermal PWL,[6],8.6 ± 0.2 s
same,Mechanical PWT,[7],4454.9 ± 245.9 mN/mm^2
same,Thermal PWL,[7],16.8 ± 0.9 s
same,Mechanical PWT,[8],4454.9 ± 245.9 mN/mm^2
same,Thermal PWL,[8],15.3 ± 0.7 s
same,Mechanical PWT,[9],651.9 ± 193.0 mN/mm^2
same,Thermal PWL,[9],16.4 ± 0.9 s
same,Mechanical PWT,[10],651.9 ± 193.0 mN/mm^2
same,Thermal PWL,[10],8.4 ± 0.6 s
same,Mechanical PWT,[11],2040.2 ± 115.2 mN/mm^2
same,Thermal PWL,[11],16.1 ± 0.9 s
same,Mechanical PWT,[12],4830.6 ± 0.0 mN/mm^2
same,Thermal PWL,[12],13.4 ± 0.7 s
same,Mechanical PWT,[13],412.2 ± 24.3 mN/mm^2
same,Thermal PWL,[13],16.7 ± 1.0 s
same,Mechanical PWT,[14],736.0 ± 26.3 mN/mm^2
same,Thermal PWL,[14],7.2 ± 0.6 s
same,"% reversal of sensitisation, PWL",[15],83.7±10.1%
same,"% reversal of sensitisation, PWT",[15],54.0±7.2%
"CC(C)[C@@H]1CC[C@@H](C)C[C@H]1O [(−)-menthol, 1R,2S,5R-(−)-menthol]",reversal of sensitised responses,"topical, (−)-menthol 4 mM, isomenthol and (+)-menthol 8 mM and 16 mM",Specific reversal of sensitised responses
